Results reported in patent EP2926811A1, “ARTEMETHER-CONTAINING PHARMACEUTICAL COMPOSITION, PREPARATION, AND USE THEREOF” (Kunming Pharmaceutical Corp., priority 2012, dated 2014).
pIC50: −log10 of the molar value. Where two headings read alike, the source gives them in different places.

What was measured:
Assay type in all cases: cell-based
[1] = system: K562 cells; assay: modified MTT method, proliferation of K562 cells; conditions: Homo sapiens, read-out: IC50 on the growth of K562 cells
Protocol: (§1) Five test concentrations 2, 10, 50, 250 and 500 µM were set for each of five derivatives of artemisinin, artemether drug substance, artemisinin, dihydroartemisinin, artesunate were dissolved with dimethyl sulfoxide (DMSO), while the lyophilized powder of artemether was dissolved with normal saline (N.S.), followed by addition of a certain amount of RPMI 1640 complete culture solution to formulate a high-concentration solution, and each of the low-concentration solutions was formulated by proportionate dilution from the high-concentration solution.
(§2) The concentrations of DMSO contained in the solutions at the two relatively high concentrations 500 and 250 µM for the artemether drug substance, artemisinin, dihydroartemisinin, artesunate, used as solvent controls, were formulated with […] culture solution, at which time the test concentrations of DMSO were 1% and 0.5%. The concentrations of the excipients contained in the solutions at the two relatively high concentrations 500 and 250 µM for the preparation of lyophilized powder of artemether were used as solvent controls.
(§3) The positive control was an anti-cancer drug adriamycin (ADM), which was set at three test concentrations (final concentrations) of 0.1, 1 and 10 µg/ml. To ADM stock solution (1 mg/ml) a certain amount of PRMI 1640 complete culture solution was added, to formulate a high-concentration solution, and each of the low-concentration solutions were formulated by proportionate dilutions from the high-concentration solution.
(§4) HL-60: (human promyelocytic leukemia cell line); K562 (human chronic myelocytic leukemia cell line); HT-29 (human colon cancer cell line); PC-3 (human prostate cancer cell line); A549 (human non-small cell lung cancer cell line); MKN-28 (human gastric cancer cell line); Hep2 (human laryngeal cancer cell line), all of which were purchased from Cell Bank of Shanghai Institutes for Biological Sciences, the Chinese Academy of Sciences.
(§5) Influence of the five test samples on the proliferation of 7 human tumor cell lines was determined via a modified MTT method.
(§6) Cells in logarithmic growth phase were taken, adjusted to a certain concentration and then added into a 96 well culture plate. After culture of adherent cells for a period until adherence, the test samples were added; and for suspension cells, the test samples were added after inoculation. 5 test concentrations 2, 10, 50, 250 and 500 µM were set, with 3 parallel wells for each concentration, 10 µl/well; the solvent controls were 0.5% and 1% of isovolumetric DMSO, and the positive controls was ADM at 3 concentrations 0.1, 1 and 10 µg/ml. The samples were loaded followed by culture for a period of time in an incubator at 37°C, 5% CO2, followed by addition of MTT (5 mg/ml) at 20 µl/well, and continued to be cultured for a period of time and added with a three-combined solution [10% SDS - 5% isobutanol - 0.012 mol/L HCl (W/V/V)]. After dissolving in uniformity, it was continued to be placed in the incubator at 37°C, 5% CO2 for a period of time, and the OD value of each well was determined under a wavelength of 570 nm with a microplate reader, according to which the results were calculated.
(§7) The cellular proliferation inhibition rate was calculated in accordance with the following equation: Inhibition rate (%) = (OD valuecontrol well-OD valuesample well)/OD valuecontrol well × 100% [formula]
(§8) When the inhibition rate of DMSO on cells was more than 15%, calculation was carried out using the following equation: Inhibition rate (%) = (OD valuesolvent group-OD valueadministered well)/OD valuesolvent group × 100% [formula]
(§9) The inhibition rate was calculated by using Microsoft Excel 2003, and median inhibitory concentration IC50 was calculated with a LOGIT method, which was used as an indicator for judging the inhibitory capability.

[2] = system: HL-60 cells; assay: modified MTT method, proliferation of HL-60 cells; conditions: Homo sapiens, read-out: IC50 on the growth of HL-60 cells
Protocol: as §1, §2, §3, §4, §5, §6, §7, §8, §9

[3] = system: A549 cells; assay: modified MTT method, proliferation of A549 cells; conditions: Homo sapiens, read-out: IC50 on the growth of A549 cells
Protocol: as §1, §2, §3, §4, §5, §6, §7, §8, §9

[4] = system: HT-29 cells; assay: modified MTT method, proliferation of HT-29 cells; conditions: Homo sapiens
Protocol: as §1, §2, §3, §4, §5, §6, §7, §8, §9
(§10) According to the results of preliminary screening, further experiments were adjusted such that more sensitive cell lines were screened out. […]

[5] = system: PC-3 cells; assay: modified MTT method, proliferation of PC-3 cells; conditions: Homo sapiens, read-out: IC50 on the growth of PC-3 cells
Protocol: as §1, §2, §3, §4, §5, §6, §7, §8, §9

[6] = system: MKN-28 cells; assay: modified MTT method, proliferation of MKN-28 cells; conditions: Homo sapiens, MKN-28, 72 h, secondary screening
Protocol: as §1, §2, §3, §4, §5, §6, §7, §8, §9, §10

[7] = system: Hep2 cells; assay: modified MTT method, proliferation of Hep2 cells; conditions: Homo sapiens, HEp-2, 72 h, secondary screening
Protocol: as §1, §2, §3, §4, §5, §6, §7, §8, §9, §10

`CO[C@H]1O[C@@H]2O[C@@]3(C)CC[C@H]4[C@H](C)CC[C@@H]([C@H]1C)[C@@]24OO3` [artemether drug substance, (3R,5αS,6R,8αS,9R,10S,12R,12αR)-decahydro-10-methoxy-3,6,9-trimethyl-3,12-epoxy-12H-pyrano[4,3-j]-1,2-benzodioxepin] was tested, and the pIC50 ([1]; K562, 24 h, Batch 1, 24 h) was less than 3.00, the pIC50 ([1]; K562, 24 h, Batch 2, 24 h) was less than 3.00 and the pIC50 ([1]; K562, 24 h, Batch 3, 24 h) was 3.46. It also gave a pIC50 ([1]; K562, 48 h, Batch 1, 48 h) of less than 3.00, a pIC50 ([1]; K562, 48 h, Batch 2, 48 h) of less than 3.00 and a pIC50 ([1]; K562, 48 h, Batch 3, 48 h) of 3.48. It also gave a pIC50 ([1]; K562, 72 h, Batch 1, 72 h) of less than 3.00, a pIC50 ([1]; K562, 72 h, Batch 2, 72 h) of 3.05 and a pIC50 ([1]; K562, 72 h, Batch 3, 72 h) of 3.86. It also gave a pIC50 ([2]; HL-60, 24 h, Batch 1, 24 h) of less than 3.00, a pIC50 ([2]; HL-60, 24 h, Batch 2, 24 h) of 3.18 and a pIC50 ([2]; HL-60, 48 h, Batch 1, 48 h) of less than 3.00. The pIC50 ([2]; HL-60, 48 h, Batch 2, 48 h) was 4.11, the pIC50 ([2]; HL-60, 72 h, Batch 1, 72 h) was less than 3.00 and the pIC50 ([2]; HL-60, 72 h, Batch 2, 72 h) was 3.61. For the same compound, the pIC50 ([3]; A549, 24 h, Batch 1, 24 h) was less than 3.00, the pIC50 ([3]; A549, 24 h, Batch 2, 24 h) was 3.19 and the pIC50 ([3]; A549, 48 h, Batch 1, 48 h) was less than 3.00. It also gave a pIC50 ([3]; A549, 48 h, Batch 2, 48 h) of less than 3.00, a pIC50 ([3]; A549, 72 h, Batch 1, 72 h) of less than 3.00 and a pIC50 ([3]; A549, 72 h, Batch 2, 72 h) of 3.08. The pIC50 ([4]; HT-29, 24 h, preliminary screening, Batch 1, 24 h, read-out: IC50 on the growth of HT-29 cells) was less than 3.00, the pIC50 ([4]; HT-29, 24 h, preliminary screening, Batch 2, 24 h, read-out: IC50 on the growth of HT-29 cells) was less than 3.00 and the pIC50 ([4]; HT-29, 48 h, preliminary screening, Batch 1, 48 h, read-out: IC50 on the growth of HT-29 cells) was less than 3.00. The pIC50 ([4]; HT-29, 48 h, preliminary screening, Batch 2, 48 h, read-out: IC50 on the growth of HT-29 cells) was less than 3.00, the pIC50 ([4]; HT-29, 72 h, preliminary screening, Batch 1, 72 h, read-out: IC50 on the growth of HT-29 cells) was 3.50 and the pIC50 ([4]; HT-29, 72 h, preliminary screening, Batch 2, 72 h, read-out: IC50 on the growth of HT-29 cells) was 3.24. The pIC50 ([4]; HT-29, 72 h, secondary screening, 72 h, Batch 1, read-out: IC50 on the growth of HT-29 cells (72 h)) was 3.67, the pIC50 ([4]; HT-29, 72 h, secondary screening, 72 h, Batch 2, read-out: IC50 on the growth of HT-29 cells (72 h)) was 3.58 and the pIC50 ([4]; HT-29, 72 h, secondary screening, 72 h, Batch 3, read-out: IC50 on the growth of HT-29 cells (72 h)) was 3.61. It also gave a pIC50 ([4]; HT-29, 72 h, secondary screening, 72 h, average, read-out: IC50 on the growth of HT-29 cells (72 h)) of 3.59, a pIC50 ([5]; PC-3, 24 h, Batch 1, 24 h) of less than 3.00 and a pIC50 ([5]; PC-3, 24 h, Batch 2, 24 h) of less than 3.00. It also gave a pIC50 ([5]; PC-3, 48 h, Batch 1, 48 h) of less than 3.00, a pIC50 ([5]; PC-3, 48 h, Batch 2, 48 h) of less than 3.00 and a pIC50 ([5]; PC-3, 72 h, Batch 1, 72 h) of less than 3.00. The pIC50 ([5]; PC-3, 72 h, Batch 2, 72 h) was less than 3.00, the pIC50 ([6]; Average, read-out: IC50 on the growth of MKN-28 cells (72 h)) was 3.40 and the pIC50 ([6]; Batch 1, read-out: IC50 on the growth of MKN-28 cells (72 h)) was 1.55. For the same compound, the pIC50 ([6]; Batch 2, read-out: IC50 on the growth of MKN-28 cells (72 h)) was 3.47, the pIC50 ([6]; Batch 3, read-out: IC50 on the growth of MKN-28 cells (72 h)) was 3.28 and the pIC50 ([7]; Batch 1, read-out: IC50 on the growth of Hep2 cells (72 h)) was 3.38. For the same compound, the pIC50 ([7]; Batch 2, read-out: IC50 on the growth of Hep2 cells (72 h)) was less than 3.00, the pIC50 ([7]; Batch 3, read-out: IC50 on the growth of Hep2 cells (72 h)) was less than 3.00 and the pIC50 ([7]; average, read-out: IC50 on the growth of Hep2 cells (72 h)) was less than 3.00.
